17 compounds from US20110183969A1, “ANTIFUNGAL COMBINATION THERAPY” (priority 2008, published 2011) can be followed below.

Values after ≈ are worked out from the molar mass of the structure shown.

Usually MIC stands for the least concentration at which growth counts as inhibited.

Assay in all cases: MIC (YAG medium)
What all share (assay type): cell-based

The subject of one assay is Aspergillus flavus. The note with it: YAG medium, MIC banded into grades; for MIC: Aspergillus flavus, read-out: MIC A. flavus (grade). The method in brief: (§1)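 Spores grown on Sabouraud agar and diluted in YAG medium (1% glucose, 1% ammonium chloride, 0.5% yeast extract) to final inocula of 1-2×10^4 cfu/mL over a 50-0.05 mg/L drug range. Read by OD485 after 24 hrs at 35° C. MIC (mg/L) is the lowest concentration inhibiting growth >70% versus drug-free control.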

For assay [1], the system named is Aspergillus fumigatus AF210. The note with it: YAG medium, MIC banded into grades, AF210; for MIC: Aspergillus fumigatus, read-out: MIC A. fumigatus 210 (grade). The method in brief:
as §1

Assay [2] has as its system Aspergillus fumigatus AF293. The note with it: YAG medium, MIC banded into grades, AF293; for MIC: Aspergillus fumigatus, read-out: MIC A. fumigatus (grade). The method in brief: as §1
The test system of a further assay is Aspergillus niger. The note with it: YAG medium, MIC banded into grades; for MIC: Aspergillus niger, read-out: MIC A. niger (grade). The method in brief:
as §1

Another assay deals with Aspergillus terreus AT49. The note with it: YAG medium, MIC banded into grades, AT49; for MIC: Aspergillus terreus, read-out: MIC A. terreus 49 (grade). The method in brief: as §1
For a further assay, the system named is Aspergillus terreus AT4. The note with it: YAG medium, MIC banded into grades, AT4; for MIC: Aspergillus terreus, read-out: MIC A. terreus (grade). The method in brief:
as §1

Regarding `Cc1cc(C)nc(N2CCN(c3ccc(NC(=O)C(=O)c4c(C5CCCCC5)cc5ccccn45)cc3)CC2)c1` [Example 60, 2-(2-Cyclohexyl-indolizin-3-yl)-N-{4-[4-(4,6-dimethyl-pyridin-2-yl)-piperazin-1-yl]-phenyl}-2-oxo-acetamide], the MIC (in the assay with Aspergillus flavus; in assay [1]; in assay [2]; with Aspergillus niger; in the assay on Aspergillus terreus AT49; with Aspergillus terreus AT4) was below 1 µg/mL each time.

On to `Cc1cc(C)nc(N2CCN(c3ccc(NC(=O)C(=O)c4c(C(C)C)cc5ccccn45)cc3)CC2)c1` [Example 61, N-{4-[4-(4,6-Dimethyl-pyridin-2-yl)-piperazin-1-yl]-phenyl}-2-(2-isopropyl-indolizin-3-yl)-2-oxo-acetamide], for which the MIC (with Aspergillus flavus; in assay [1]; in assay [2]; in the assay on Aspergillus niger; in the assay with Aspergillus terreus AT49; with Aspergillus terreus AT4) was below 1 µg/mL throughout.

With `Cc1cc(C)nc(N2CCN(c3ccc(NC(=O)C(=O)c4c(C(C)(C)C)cc5ccccn45)cc3)CC2)c1` [Example 62, 2-(2-tert-Butyl-indolizin-3-yl)-N-{4-[4-(4,6-dimethyl-pyridin-2-yl)-piperazin-1-yl]-phenyl}-2-oxo-acetamide], the MIC is above 10 µg/mL in the assay on Aspergillus flavus; above 10 µg/mL in assay [1]; above 10 µg/mL in assay [2]; above 10 µg/mL in the assay on Aspergillus niger; above 10 µg/mL in the assay with Aspergillus terreus AT49; 1 to 10 µg/mL (≈ 1.96 to 19.6 µM) in the assay on Aspergillus terreus AT4.

On to `Cc1cc(C)nc(N2CCN(c3ccc(NC(=O)C(=O)c4c(C5CCN(C)CC5)cc5ccccn45)cc3)CC2)c1` [Example 63, N-{4-[4-(4,6-Dimethyl-pyridin-2-yl)-piperazin-1-yl]-phenyl}-2-[2-(1-methyl-piperidin-4-yl)-indolizin-3-yl]-2-oxo-acetamide], for which the minimal inhibitory concentration (MIC) (in the assay with Aspergillus flavus; in assay [1]; in assay [2]; in the assay on Aspergillus niger; in the assay on Aspergillus terreus AT49; in the assay with Aspergillus terreus AT4) was above 10 µg/mL in each case.

On to `Cc1cc(C)nc(N(C)CCOc2ccc(NC(=O)C(=O)c3c(-c4ccccc4)cc4ccccn34)cc2)c1` [Example 64, N-(4-{2-[(4,6-Dimethyl-pyridin-2-yl)-methyl-amino]-ethoxy}-phenyl)-2-oxo-2-(2-phenyl-indolizin-3-yl)-acetamide], for which the MIC (with Aspergillus flavus; in assay [1]; in assay [2]; with Aspergillus niger; in the assay on Aspergillus terreus AT49; in the assay with Aspergillus terreus AT4) was below 1 µg/mL each time.

In the case of `Cc1cc(C)nc(OCCOc2ccc(NC(=O)C(=O)c3c(-c4ccccc4)cc4ccccn34)cc2)c1` [Example 65, N-{4-[2-(4,6-Dimethyl-pyridin-2-yloxy)-ethoxy]-phenyl}-2-oxo-2-(2-phenyl-indolizin-3-yl)-acetamide], the minimum inhibitory concentration (MIC) (with Aspergillus flavus; in assay [1]; in assay [2]; in the assay on Aspergillus niger; with Aspergillus terreus AT49; in the assay with Aspergillus terreus AT4) was below 1 µg/mL throughout.

Regarding `Cc1cc(C)nc(N2CCN(c3ccc(NC(=O)C(=O)c4c(C5CCOCC5)cc5ccccn45)cc3)CC2)c1` [Example 66, N-{4-[4-(4,6-Dimethyl-pyridin-2-yl)-piperazin-1-yl]-phenyl}-2-oxo-2-[2-(tetrahydro-pyran-4-yl)-indolizin-3-yl]-acetamide], the minimal inhibitory concentration (MIC) (in the assay with Aspergillus flavus; in assay [1]; in assay [2]; in the assay on Aspergillus niger; with Aspergillus terreus AT49; with Aspergillus terreus AT4) was below 1 µg/mL in each case.

For `Cc1cc(C)nc(N(C)CCCN(C)c2ccc(NC(=O)C(=O)c3c(-c4ccccc4)cc4ccccn34)cc2)c1` [Example 67, N-[4-({3-[(4,6-dimethyl-pyridin-2-yl)-methyl-amino]-propyl}-methyl-amino)-phenyl]-2-oxo-2-(2-phenyl-indolizin-3-yl)-acetamide], the MIC (in the assay on Aspergillus flavus; in assay [1]; in assay [2]; with Aspergillus niger; with Aspergillus terreus AT49; in the assay on Aspergillus terreus AT4) was below 1 µg/mL each time.

For `COCCN(C)c1ccc(N2CCN(c3ccc(NC(=O)C(=O)c4c(-c5ccccc5)cc5ccccn45)cc3)CC2)cn1` [Example 68, N-[4-(4-{6-[(2-Methoxy-ethyl)-methyl-amino]-pyridin-3-yl}-piperazin-1-yl)-phenyl]-2-oxo-2-(2-phenyl-indolizin-3-yl)-acetamide], the MIC (with Aspergillus flavus; in assay [1]; in assay [2]; with Aspergillus niger; in the assay on Aspergillus terreus AT49; with Aspergillus terreus AT4) was below 1 µg/mL each time.

With `Cc1cc(C)nc(NCCN(C)c2ccc(NC(=O)C(=O)c3c(-c4ccccc4)cc4ccccn34)cc2)c1` [Example 69, N-(4-{[2-(4,6-dimethyl-pyridin-2-ylamino)-ethyl]-methyl-amino}-phenyl)-2-oxo-2-(2-phenyl-indolizin-3-yl)-acetamide], the MIC (in the assay on Aspergillus flavus; in assay [1]; in assay [2]; with Aspergillus niger; with Aspergillus terreus AT49; in the assay on Aspergillus terreus AT4) was below 1 µg/mL each time.

Consider `Cc1cc(OCCOc2ccc(NC(=O)C(=O)c3c(-c4ccccc4)cc4ccccn34)cc2)cc(C)n1` [Example 71, N-{4-[2-(2,6-Dimethyl-pyridin-4-yloxy)-ethoxy]-phenyl}-2-oxo-2-(2-phenyl-indolizin-3-yl)-acetamide], for which the minimal inhibitory concentration (MIC) in the assay with Aspergillus flavus is 1 to 10 µg/mL (≈ 1.98 to 19.8 µM); in assay [1], below 1 µg/mL; in assay [2], below 1 µg/mL; in the assay on Aspergillus niger it was 1 to 10 µg/mL (≈ 1.98 to 19.8 µM); in the assay with Aspergillus terreus AT49 it was below 1 µg/mL; with Aspergillus terreus AT4, below 1 µg/mL.

As for `Cc1cc(C)nc(CCCCc2ccc(NC(=O)C(=O)c3c(-c4ccccc4)cc4ccccn34)cc2)c1` [Example 72, N-{4-[4-(4,6-Dimethyl-pyridin-2-yl)-butyl]-phenyl}-2-oxo-2-(2-phenyl-indolizin-3-yl)-acetamide], the MIC (with Aspergillus flavus; in assay [1]; in assay [2]; in the assay with Aspergillus niger; with Aspergillus terreus AT49; in the assay with Aspergillus terreus AT4) was below 1 µg/mL in each case.

For the compound `CCc1cccc(N2CCN(c3ccc(NC(=O)C(=O)c4c(-c5ccccc5)cc5ccccn45)cc3)CC2)n1` [Example 73, N-{4-[4-(6-ethyl-pyridin-2-yl)-piperazin-1-yl]-phenyl}-2-oxo-2-(2-phenyl-indolizin-3-yl)-acetamide], the minimum inhibitory concentration (MIC) (in the assay with Aspergillus flavus; in assay [1]; in assay [2]; with Aspergillus niger; in the assay with Aspergillus terreus AT49; in the assay with Aspergillus terreus AT4) was below 1 µg/mL each time.

Regarding `Cc1ccc(N2CCN(c3ccc(NC(=O)C(=O)c4c(-c5ccccc5)cc5ccccn45)cc3)CC2)nc1` [Example 74, N-{4-[4-(5-Methyl-pyridin-2-yl)-piperazin-1-yl]-phenyl}-2-oxo-2-(2-phenyl-indolizin-3-yl)-acetamide], the MIC (with Aspergillus flavus; in assay [1]; in assay [2]; in the assay on Aspergillus niger; in the assay with Aspergillus terreus AT49; in the assay with Aspergillus terreus AT4) was below 1 µg/mL throughout.

As for `CCc1ccnc(N2CCN(c3ccc(NC(=O)C(=O)c4c(-c5ccccc5)cc5ccccn45)cc3)CC2)c1` [Example 75, N-{4-[4-(4-ethyl-pyridin-2-yl)-piperazin-1-yl]-phenyl}-2-oxo-2-(2-phenyl-indolizin-3-yl)-acetamide], the MIC (with Aspergillus flavus; in assay [1]; in assay [2]; in the assay on Aspergillus niger; with Aspergillus terreus AT49; in the assay with Aspergillus terreus AT4) was below 1 µg/mL in each case.

With `COCCOCCOc1cc(C)nc(N2CCN(c3ccc(NC(=O)C(=O)c4c(-c5ccccc5)cc5ccccn45)cc3)CC2)c1` [Example 76, N-[4-(4-{4-[2-(2-methoxy-ethoxy)-ethoxy]-6-methyl-pyridin-2-yl}-piperazin-1-yl)-phenyl]-2-oxo-2-(2-phenyl-indolizin-3-yl)-acetamide], the MIC (with Aspergillus flavus; in assay [1]; in assay [2]; in the assay with Aspergillus niger; with Aspergillus terreus AT49; in the assay on Aspergillus terreus AT4) was below 1 µg/mL in each case.

For the compound `O=C(Nc1ccc(N2CCN(c3ccc(CN4CCOCC4)cn3)CC2)cc1)C(=O)c1c(-c2ccccc2)cc2ccccn12` [Example 77, N-{4-[4-(5-morpholin-4-yl-methyl-pyridin-2-yl)-piperazin-1-yl]-phenyl}-2-oxo-2-(2-phenyl-indolizin-3-yl)-acetamide], the “MIC A. flavus (grade)” value with Aspergillus flavus is recorded as 3 (A grade of 3 represents an MIC of less than 1 mg/L). In assay [1], the “MIC A. fumigatus 210 (grade)” value was 3 (A grade of 3 represents an MIC of less than 1 mg/L). The “MIC A. fumigatus (grade)” value in assay [2] is given as 3 (A grade of 3 represents an MIC of less than 1 mg/L). In addition, in the assay with Aspergillus niger, the “MIC A. niger (grade)” value is 3 (A grade of 3 represents an MIC of less than 1 mg/L). For the same compound, the “MIC A. terreus 49 (grade)” value in the assay with Aspergillus terreus AT49 is 3 (A grade of 3 represents an MIC of less than 1 mg/L). For the same compound, the “MIC A. terreus (grade)” value with Aspergillus terreus AT4 was 3 (A grade of 3 represents an MIC of less than 1 mg/L).
